Assay results reported in PubChem BioAssay (NCI).
Several values for one entry are separate records, joined by “and”; a condition that tells them apart may be missing. Identical values can stand only once.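 Growth conditions: 96-well plates. Treatment: test compound, 48 hours, 5 concentrations. Analysis: linear interpolation between bracketing concentrations; unreached endpoints set to highest concentration. GI50 = concentration required for 50% inhibition of growth. TGI marks complete inhibition of growth.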

What was measured:
Assay in all cases: NCI tumour cell line growth inhibition, 48 h
[1] = test system: OVCAR-5 ovarian
[2] = test system: OVCAR-8 ovarian
[3] = test system: BT-549 breast
[4] = test system: SR leukemia
[5] = test system: 786-0 renal
[6] = test system: RXF 393 renal
[7] = test system: A498 renal
[8] = test system: OVCAR-4 ovarian
[9] = test system: UACC-257 melanoma
[10] = test system: U251 CNS

SMILES: CCS(=O)(=O)c1ccc(OC)c(Nc2ncc(-c3cccc(-c4ccccc4F)c3)o2)c1
- GI50 [1]: 13 µM
- TGI [1]: > 25 µM
- GI50 [2]: > 25 µM
- TGI [2]: > 25 µM
- GI50 [3]: > 22.2 µM
- TGI [3]: > 25 µM
- GI50 [4]: > 25 µM
- TGI [4]: > 25 µM
- GI50 [5]: 20.3 µM
- TGI [5]: > 25 µM
- GI50 [6]: 2.45 µM
- TGI [6]: > 17.9 µM
- GI50 [7]: 1.07 µM
- TGI [7]: 7.54 µM
- GI50 [8]: 3.79 µM
- TGI [8]: > 25 µM
- GI50 [9]: > 25 µM
- TGI [9]: > 25 µM
- GI50 [10]: 12.1 µM
- TGI [10]: > 25 µM

SMILES: Clc1cccc(Cn2cc(Cc3cn(Cc4cccc(Cl)c4)c4ccccc34)c3ccccc32)c1
- GI50 [1]: 47.1 µM
- TGI [1]: > 100 µM
- GI50 [2]: > 100 µM
- TGI [2]: > 100 µM
- GI50 [3]: > 100 µM
- TGI [3]: > 100 µM
- GI50 [4]: > 100 µM
- TGI [4]: > 100 µM
- GI50 [5]: > 100 µM
- TGI [5]: > 100 µM
- GI50 [6]: > 100 µM
- TGI [6]: > 100 µM
- GI50 [7]: > 100 µM
- TGI [7]: > 100 µM
- GI50 [8]: > 100 µM
- TGI [8]: > 100 µM
- GI50 [9]: > 100 µM
- TGI [9]: > 100 µM
- GI50 [10]: > 100 µM
- TGI [10]: > 100 µM

SMILES: C[C@@]12CCC[C@@](C)(C(=O)O)C1CC[C@]13C=C(CO)[C@](O)(CCC12)C3 (stereo not given in full)
- GI50 [1]: > 100 µM
- TGI [1]: > 100 µM
- GI50 [2]: > 100 µM
- TGI [2]: > 100 µM
- GI50 [3]: > 100 µM
- TGI [3]: > 100 µM
- GI50 [4]: > 100 µM
- TGI [4]: > 100 µM
- GI50 [5]: > 100 µM
- TGI [5]: > 100 µM
- GI50 [6]: > 100 µM
- TGI [6]: > 100 µM
- GI50 [7]: > 100 µM
- TGI [7]: > 100 µM
- GI50 [8]: > 100 µM
- TGI [8]: > 100 µM
- GI50 [9]: > 100 µM
- TGI [9]: > 100 µM
- GI50 [10]: > 100 µM
- TGI [10]: > 100 µM

SMILES: CNC(=O)c1cc(Oc2ccc3nc(NC(=O)c4cc(C(F)(F)F)cc(C(F)(F)F)c4)sc3c2)ccn1
- GI50 [1]: 4.23 µM
- TGI [1]: 25 µM
- GI50 [2]: 3.06 µM
- TGI [2]: 13 µM
- GI50 [3]: 3.05 µM
- TGI [3]: 12.4 µM
- GI50 [4]: 3.37 µM
- TGI [4]: 15 µM
- GI50 [5]: 2.55 µM
- TGI [5]: 8.07 µM
- GI50 [6]: 2.79 µM
- TGI [6]: 8.37 µM
- GI50 [7]: 1.45 µM
- TGI [7]: 4.51 µM
- GI50 [8]: 3.12 µM
- TGI [8]: 27.2 µM
- GI50 [9]: 2.89 µM
- TGI [9]: 8.12 µM
- GI50 [10]: 3.65 µM
- TGI [10]: 13.7 µM

SMILES: COc1cc2c3c(n(CCCN=[N+]=[N-])c(=O)c2cc1OC)-c1ccc(N)cc1C3=O
- GI50 [1]: 0.633 µM
- TGI [1]: 1.33 µM
- GI50 [2]: 0.436 µM
- TGI [2]: 1.9 µM
- GI50 [3]: 0.244 µM
- TGI [3]: 6.4 µM
- GI50 [4]: 0.0276 µM
- TGI [4]: 0.498 µM
- GI50 [5]: 0.16 µM
- TGI [5]: 0.431 µM
- GI50 [6]: 0.189 µM
- TGI [6]: 0.468 µM
- GI50 [7]: 0.0759 µM
- TGI [7]: 0.484 µM
- GI50 [8]: 0.608 µM
- TGI [8]: 2.59 µM
- GI50 [9]: 0.431 µM
- TGI [9]: 1.49 µM
- GI50 [10]: 0.0832 µM
- TGI [10]: 0.766 µM

SMILES: S=c1cn[nH]c2ccc(Br)cc12
- TGI [1]: > 100 µM
- TGI [2]: > 100 µM
- TGI [3]: > 100 µM
- TGI [4]: > 100 µM
- TGI [5]: > 100 µM
- TGI [6]: 70.7 µM
- TGI [7]: > 100 µM
- TGI [8]: > 100 µM
- TGI [9]: > 100 µM
- TGI [10]: > 100 µM

SMILES: CC(/C=C/C=C/C=C/C=C/C=C/C(O)=C1/C(=O)C(CCC(=O)O)N(C)C1=O)=C\C(C)C(OC1CC(O)C(O)C(C)O1)C(C)C (stereo not given)
- TGI [1]: 7.83 µM
- TGI [2]: 15.1 µM
- TGI [3]: 7.1 µM
- TGI [4]: 40.2 µM
- TGI [5]: 11.1 µM
- TGI [6]: 11.2 µM
- TGI [7]: 10.7 µM
- TGI [8]: 40.1 µM
- TGI [9]: 6.66 µM
- TGI [10]: 11.7 µM

SMILES: S=C(Nc1ccc(-c2nc3ccccc3s2)cc1)Nc1ccccn1
- GI50 [1]: > 52.8 µM
- TGI [1]: > 81.4 µM
- GI50 [2]: 32.6 µM
- TGI [2]: > 73.9 µM
- GI50 [3]: 14.9 µM
- TGI [3]: > 100 µM
- GI50 [4]: 26.6 µM
- TGI [4]: 57.4 µM
- GI50 [5]: 24.7 µM
- TGI [5]: 70.4 µM
- GI50 [6]: 33.1 µM
- TGI [6]: > 74.5 µM
- GI50 [7]: 19.8 µM
- TGI [7]: 44.7 µM
- GI50 [8]: 37 µM
- TGI [8]: > 100 µM
- GI50 [9]: 31.8 µM
- TGI [9]: > 72 µM
- GI50 [10]: 27.9 µM
- TGI [10]: > 100 µM

SMILES: O=C(/C=C/c1ccccc1Cl)c1ccc(O)cc1
- GI50 [1]: 19.8 µM
- TGI [1]: 37.4 µM
- GI50 [2]: 8.3 µM
- TGI [2]: 26.3 µM
- GI50 [3]: 2.3 µM
- TGI [3]: 6.76 µM
- GI50 [4]: 2.82 µM
- TGI [4]: > 24.4 µM
- GI50 [5]: 15.8 µM
- TGI [5]: 30 µM
- GI50 [6]: 1.97 µM
- TGI [6]: 5.59 µM
- GI50 [7]: 8.46 µM
- TGI [7]: 21.6 µM
- GI50 [8]: 10.6 µM
- TGI [8]: 24.9 µM
- GI50 [9]: 9.79 µM
- TGI [9]: 22.5 µM
- GI50 [10]: 3.41 µM
- TGI [10]: 12.7 µM

SMILES: CCN(CC)CCC(CNc1c2ccc([N+](=O)[O-])cc2nc2cc(OC)c(OC)cc12)c1ccccc1 (stereo not given)
- GI50 [1]: 0.487 µM and 0.755 µM
- TGI [1]: 1.93 µM and 2.3 µM
- GI50 [2]: 0.45 µM and 0.166 µM
- TGI [2]: 1.87 µM and 0.978 µM
- GI50 [3]: 1.49 µM and 0.74 µM
- TGI [3]: 3.78 µM and 2 µM
- GI50 [4]: 0.0379 µM and 0.057 µM
- TGI [4]: 0.521 µM and 3.57 µM
- GI50 [5]: 1.07 µM and 0.671 µM
- TGI [5]: 2.54 µM and 1.93 µM
- GI50 [6]: 0.541 µM and 0.228 µM
- TGI [6]: 1.77 µM and 0.662 µM
- GI50 [7]: 1.69 µM and 1.19 µM
- TGI [7]: 3.12 µM and 2.52 µM
- GI50 [8]: 0.271 µM and 0.228 µM
- TGI [8]: 1.03 µM and 0.863 µM
- GI50 [9]: 0.41 µM and 0.365 µM
- TGI [9]: 1.43 µM and 1.3 µM
- GI50 [10]: 0.294 µM and 0.203 µM
- TGI [10]: 1.13 µM and 1.22 µM

SMILES: Nc1cccc(-c2nc3sccn3c2-c2ccnc(NCCCNS(=O)(=O)c3ccc(C(F)(F)F)cc3)n2)c1
- GI50 [1]: 13.7 µM
- TGI [1]: 95.1 µM
- GI50 [2]: 3.49 µM
- TGI [2]: 44.9 µM
- GI50 [3]: 2.95 µM
- TGI [3]: 13.1 µM
- GI50 [4]: 3.84 µM
- TGI [4]: 43.9 µM
- GI50 [5]: 5.74 µM
- TGI [5]: > 100 µM
- GI50 [6]: 6.29 µM
- TGI [6]: > 100 µM
- GI50 [7]: 3.35 µM
- TGI [7]: 49.5 µM
- GI50 [8]: 3.27 µM
- TGI [8]: 22.8 µM
- GI50 [9]: 5.27 µM
- TGI [9]: 50.6 µM
- GI50 [10]: 5.87 µM
- TGI [10]: > 100 µM

SMILES: COc1ccc(C2=C(Br)C(=O)OC2)cc1Cl
- GI50 [1]: 51.2 µM
- TGI [1]: > 100 µM
- GI50 [2]: 20.2 µM
- TGI [2]: > 52.7 µM
- GI50 [3]: 22.7 µM
- TGI [3]: 64.7 µM
- GI50 [4]: 22.1 µM
- TGI [4]: > 100 µM
- GI50 [5]: 34 µM
- TGI [5]: > 100 µM
- GI50 [6]: 26.8 µM
- TGI [6]: > 72.4 µM
- GI50 [7]: 27.9 µM
- TGI [7]: > 80.7 µM
- GI50 [8]: 61.4 µM
- TGI [8]: > 100 µM
- GI50 [9]: 21 µM
- TGI [9]: 59.5 µM
- GI50 [10]: 28.5 µM
- TGI [10]: > 91.1 µM
